Assay results as given in ChEMBL document CHEMBL1201862, “PubChem BioAssay data set” (2004).
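Values below derive from 48-hour exposures of cells grown in 96-well plates, with endpoints linearly interpolated between the two concentrations bracketing the appropriate inhibition level. The concentration for 50% growth inhibition is given as GI50.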 Activity calls are given as the source filed them. Cut-off read from the data, not from the text of the source: active = GI50 up to about 1.1 µM and inactive = higher.

Tests used:
Test in all cases: DTP human tumour cell line panel, 48 h
[1] = system: HOP-62
[2] = system: EKVX
[3] = system: OVCAR-4
[4] = system: MDA-MB-435
[5] = system: SN12C
[6] = system: SW-620
[7] = system: TK-10
[8] = system: UACC-257
[9] = system: SF-268
[10] = system: SK-MEL-28
[11] = system: HT-29
[12] = system: K562
[13] = system: SF-539
[14] = system: KM12
[15] = system: HCC 2998
[16] = system: U-251
[17] = system: Hs-578T
[18] = system: MDA-MB-231
[19] = system: BT-549

Row | Compound | GI50 [1] | GI50 [2] | GI50 [3] | GI50 [4] | GI50 [5] | GI50 [6] | GI50 [7] | GI50 [8] | GI50 [9] | GI50 [10] | GI50 [11] | GI50 [12] | GI50 [13] | GI50 [14] | GI50 [15] | GI50 [16] | GI50 [17] | GI50 [18] | GI50 [19]
1 | Cc1cccc2oc3c(c(=O)c12)CC(O)C(C)(C)O3 (stereo not drawn) | > 100 µM (inactive) | > 100 µM (inactive) | > 100 µM (inactive) | > 100 µM (inactive) | > 100 µM (inactive) | 51.6 µM (inactive) | > 100 µM (inactive) | > 100 µM (inactive) | > 100 µM (inactive) | > 100 µM (inactive) | > 100 µM (inactive) | > 100 µM (inactive) | > 100 µM (inactive) | > 100 µM (inactive) | > 100 µM (inactive) | > 100 µM (inactive) | > 100 µM (inactive) | – | –
2 | CC(=O)OC1CC[C@@]2(C)C(C1)CC(OC(C)=O)[C@@H]1C2CC(OC(C)=O)[C@]2(C)C(C(C)CC=C(c3ccc(Cl)cc3)c3ccc(Cl)cc3)CCC12 (stereo partly drawn) | 94.4 µM (inactive) | 97.1 µM (inactive) | 76.6 µM (inactive) | > 100 µM (inactive) | > 100 µM (inactive) | 49.8 µM (inactive) | 80.4 µM (inactive) | 38.6 µM (inactive) | 59.3 µM (inactive) | > 100 µM (inactive) | 39 µM (inactive) | 15.2 µM (inactive) | 67.3 µM (inactive) | 64 µM (inactive) | 94 µM (inactive) | 60.5 µM (inactive) | 25.9 µM (inactive) | 48 µM (inactive) | –
3 | COc1cc(NCc2ccc3nc(OC)c(OC)nc3c2)cc(OC)c1OC | > 100 µM (inactive) | 77.4 µM (inactive) | > 100 µM (inactive) | > 100 µM (inactive) | > 100 µM (inactive) | > 100 µM (inactive) | – | > 100 µM (inactive) | > 100 µM (inactive) | > 100 µM (inactive) | > 100 µM (inactive) | 97.3 µM (inactive) | > 100 µM (inactive) | > 100 µM (inactive) | > 100 µM (inactive) | > 100 µM (inactive) | – | > 100 µM (inactive) | –
4 | COc1ccc(/C(Br)=C2\OC(=O)c3ccccc32)cc1 | > 10 µM (inactive) | > 10 µM (inactive) | > 10 µM (inactive) | > 10 µM (inactive) | > 10 µM (inactive) | > 10 µM (inactive) | > 10 µM (inactive) | > 10 µM (inactive) | > 10 µM (inactive) | > 10 µM (inactive) | > 10 µM (inactive) | > 10 µM (inactive) | > 10 µM (inactive) | > 10 µM (inactive) | > 10 µM (inactive) | > 10 µM (inactive) | > 10 µM (inactive) | > 10 µM (inactive) | –
5 | CCOC(CCCN1CCC2(CC1)C(=O)N(C)CN2c1ccccc1)(OCC)c1ccc(F)cc1 | 4.6 µM (inactive) | 2.14 µM (inactive) | – | – | 10.3 µM (inactive) | 10.4 µM (inactive) | 7.66 µM (inactive) | 6.14 µM (inactive) | 12.9 µM (inactive) | 16.8 µM (inactive) | 3.49 µM (inactive) | 14 µM (inactive) | 3.77 µM (inactive) | 15.3 µM (inactive) | 8.85 µM (inactive) | 12.2 µM (inactive) | – | 14.2 µM (inactive) | –
6 | O=C1CCCC2=C1CC1=C(CCCC1=O)N2c1ccccc1 | – | > 100 µM (inactive) | > 100 µM (inactive) | – | > 100 µM (inactive) | > 100 µM (inactive) | > 100 µM (inactive) | – | > 100 µM (inactive) | > 100 µM (inactive) | > 100 µM (inactive) | > 100 µM (inactive) | > 100 µM (inactive) | > 100 µM (inactive) | > 100 µM (inactive) | > 100 µM (inactive) | > 100 µM (inactive) | – | > 100 µM (inactive)
7 | C=CCN(Cc1ccncc1)C(=O)C(O)(c1ccccc1)c1ccccc1 | > 100 µM (inactive) | 35.9 µM (inactive) | – | 17.3 µM (inactive) | > 100 µM (inactive) | > 100 µM (inactive) | > 100 µM (inactive) | 79.3 µM (inactive) | > 100 µM (inactive) | 76.4 µM (inactive) | 59.3 µM (inactive) | 45.2 µM (inactive) | 70.6 µM (inactive) | 35.2 µM (inactive) | > 100 µM (inactive) | 76.2 µM (inactive) | – | > 100 µM (inactive) | 11.8 µM (inactive)
8 | COC(=O)c1cc(C)ccc1C1CN=NC12Cc1cccc(C)c1C2=O (stereo not drawn) | 35.6 µM (inactive) | 23 µM (inactive) | 25.5 µM (inactive) | 26.3 µM (inactive) | 43.9 µM (inactive) | 38.4 µM (inactive) | 71.6 µM (inactive) | 30.9 µM (inactive) | 49.7 µM (inactive) | 27.3 µM (inactive) | 36 µM (inactive) | 33.3 µM (inactive) | 51.6 µM (inactive) | 26.2 µM (inactive) | 37.9 µM (inactive) | 48.9 µM (inactive) | 28.6 µM (inactive) | 25.6 µM (inactive) | –
9 | CNC(=O)N1CN(c2ccccc2)C2(CCN(Cc3ccccc3)CC2)C1=O | > 100 µM (inactive) | 74.6 µM (inactive) | – | – | > 100 µM (inactive) | 46.1 µM (inactive) | 62.5 µM (inactive) | > 100 µM (inactive) | > 100 µM (inactive) | > 100 µM (inactive) | 15.6 µM (inactive) | 31.8 µM (inactive) | 34.7 µM (inactive) | 29.9 µM (inactive) | 9.84 µM (inactive) | > 100 µM (inactive) | – | 19.5 µM (inactive) | –
10 | CCOC(=O)Cn1nnc2cc(Nc3nc4ccccc4nc3C(=O)OCC)ccc21 | 24.4 µM (inactive) | 33.7 µM (inactive) | > 100 µM (inactive) | > 100 µM (inactive) | > 100 µM (inactive) | > 100 µM (inactive) | 22.5 µM (inactive) | > 100 µM (inactive) | 22.5 µM (inactive) | > 100 µM (inactive) | > 100 µM (inactive) | > 100 µM (inactive) | 17.3 µM (inactive) | > 100 µM (inactive) | > 100 µM (inactive) | 36 µM (inactive) | 36.5 µM (inactive) | – | > 100 µM (inactive)
11 | C/C1=C\[C@H](C)C[C@H](C)OC(=O)C[C@H](c2ccc(O)cc2)NC(=O)[C@H](Cc2ccc(O)c(I)c2)N(C)C(=O)[C@H](C)NC(=O)[C@@H](C)C1 | 0.0252 µM (active) | 0.0596 µM (active) | 0.00653 µM (active) | 0.0442 µM (active) | 0.239 µM (active) | 0.00863 µM (active) | 0.0586 µM (active) | – | 0.011 µM (active) | 0.0112 µM (active) | 0.00274 µM (active) | 1.31 µM (inactive) | – | 0.208 µM (active) | – | 0.00944 µM (active) | 0.0564 µM (active) | 0.0333 µM (active) | –
12 | Nn1c(CCCCCCCCc2nnc(COc3ccc(Cl)cc3Cl)n2N)nnc1COc1ccc(Cl)cc1Cl | – | 38.3 µM (inactive) | 46.5 µM (inactive) | 48.3 µM (inactive) | 22.2 µM (inactive) | > 100 µM (inactive) | 89.9 µM (inactive) | 61.5 µM (inactive) | 33 µM (inactive) | 68.5 µM (inactive) | 29.1 µM (inactive) | 63.8 µM (inactive) | – | 40 µM (inactive) | 56.6 µM (inactive) | 62.4 µM (inactive) | – | 52.4 µM (inactive) | 35.9 µM (inactive)
